Where a name gives a salt, the structure may show the parent alone.
Columns and labels:
[1] = biological target: T1, recombinant human 17β-HSD2 (Homo sapiens, UniProt P37059); experiment: Inhibition of recombinant human 17β-HSD2; format: biochemical; conditions: inhibitor at 1 μM; 50 nM estradiol, 1 mM NADH, 30 min at RT; read-out: 17β-HSD2 Inhibition % at 1 μM
T1 construct: made in house; host or cells: Sd9 (Sf9) insect cells, baculovirus (Bac to Bac Expression System)
T1 sequence (P37059 1-387): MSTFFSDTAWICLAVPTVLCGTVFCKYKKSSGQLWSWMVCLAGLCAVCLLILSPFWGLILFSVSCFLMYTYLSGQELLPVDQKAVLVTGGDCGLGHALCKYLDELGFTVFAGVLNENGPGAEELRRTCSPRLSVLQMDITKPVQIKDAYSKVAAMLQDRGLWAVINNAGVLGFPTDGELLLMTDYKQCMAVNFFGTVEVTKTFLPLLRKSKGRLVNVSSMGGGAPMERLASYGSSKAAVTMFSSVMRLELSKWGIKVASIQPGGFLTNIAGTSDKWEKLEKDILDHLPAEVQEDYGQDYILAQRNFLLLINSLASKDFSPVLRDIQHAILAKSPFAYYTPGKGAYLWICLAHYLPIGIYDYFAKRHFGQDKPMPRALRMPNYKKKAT
Method in brief: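 Membrane extract of baculovirus-expressed enzyme in Sf9 cells (4 μg/ml) incubated in 20 mM KH2PO4 pH 8.5 with 50 nM estradiol (³H-tracer) and 1 mM NADH, 30 min at RT, 1% DMSO, inhibitor at 1 μM or 0.1 μM. TCA-stopped; estradiol-to-estrone conversion by radio-HPLC; % inhibition = 100 − % conversion.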

[2] = biological target: T2, recombinant human 17β-HSD1 (Homo sapiens, UniProt P14061); experiment: Inhibition of recombinant human 17β-HSD1; format: biochemical; conditions: inhibitor at 1 μM; 30 nM estrone, 1 mM NADPH, 30 min at RT; read-out: 17β-HDS1 Inhibition % at 1 μM
T2 construct: made in house; host or cells: Sd9 (Sf9) insect cells, baculovirus (Bac to Bac Expression System)
T2 sequence (P14061 1-328): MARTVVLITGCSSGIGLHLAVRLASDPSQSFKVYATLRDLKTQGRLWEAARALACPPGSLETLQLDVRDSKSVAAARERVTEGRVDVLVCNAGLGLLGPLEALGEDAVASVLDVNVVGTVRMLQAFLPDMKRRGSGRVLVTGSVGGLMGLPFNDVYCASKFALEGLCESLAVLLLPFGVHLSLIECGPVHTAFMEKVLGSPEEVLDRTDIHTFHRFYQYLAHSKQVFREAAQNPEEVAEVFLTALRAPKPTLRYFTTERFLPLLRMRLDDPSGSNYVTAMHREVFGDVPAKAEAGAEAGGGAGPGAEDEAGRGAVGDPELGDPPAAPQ
Method in brief: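 Microsomal enzyme from baculovirus-infected insect cells (1 μg/ml) incubated 30 min at RT in 20 mM KH2PO4 pH 7.4 with 30 nM ³H-estrone and 1 mM NADPH, inhibitor at 1 μM or 0.1 μM, 1% DMSO. TCA-stopped; estrone/estradiol separated by radio-HPLC; % inhibition = 100 − % conversion.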

[3] = human, tissue homogenate, 1 h
Protocol: The in vitro metabolic stability of the compounds of the invention was determined for exemplified compounds using human liver microsome and homogenate incubations. The incubation time points used with or without appropriate cofactors were 0 min and 60 min. Samples were collected at both time points and substrates were detected using LC/PDA/TOF-MS.

In the case of `Cc1cnc(NC(=O)CC[C@@H]2CC(=O)[C@@]3(C)CCC4c5ccc(OS(C)(=O)=O)cc5CCC4C23)s1` (stereo partly drawn) [Compound 2, Methanesulphonic acid (13S,15R)-13-methyl-15-[2-(5-methylthiazol-2-ylcarbamoyl)-ethyl]-17-oxo-7,8,9,11,12,13,14,15,16,17-decahydro-6H-cyclopenta[a]phenanthren-3-yl ester], the inhibition at 1 µM [1] is reported as 11%, the inhibition at 1 µM [2] is reported as 95% and the “In vitro metabolic stability, % remaining after 60 min” value [3] is reported as 25%.

In the case of `Cc1cnc(NC(=O)CC[C@@H]2CC(=O)[C@@]3(C)CCC4c5ccc(OC(=O)C(C)(C)C)cc5CCC4C23)s1` (stereo partly drawn) [Compound 3, 2,2-Dimethyl-propionic acid (13S,15R)-13-methyl-15-[2-(5-methylthiazol-2-ylcarbamoyl)-ethyl]-17-oxo-7,8,9,11,12,13,14,15,16,17-decahydro-6H-cyclopenta[a]phenanthren-3-yl ester], the “In vitro metabolic stability, % remaining after 60 min” value [3] is reported as 30%.

In the case of `Cc1cnc(NC(=O)CC[C@@H]2CC(=O)[C@@]3(C)CCC4c5ccc(OS(=O)(=O)O)cc5CCC4C23)s1` (stereo partly drawn) [Compound 5, Sulphuric acid mono-{(13S,15R)-13-methyl-15-[2-(5-methylthiazol-2-ylcarbamoyl)-ethyl]-17-oxo-7,8,9,11,12,13,14,15,16,17-decahydro-6H-cyclopenta[a]phenanthren-3-yl} ester triethylamine salt], the inhibition at 1 µM [1] is reported as 4%, the inhibition at 1 µM [2] is reported as 92% and the “In vitro metabolic stability, % remaining after 60 min” value [3] is reported as 50%.

In the case of `Cc1cnc(NC(=O)CC[C@@H]2CC(=O)[C@@]3(C)CCC4c5ccc(OCc6ccccc6)cc5CCC4C23)s1` (stereo partly drawn) [Compound 30, 3-((13S,15R)-3-Benzyloxy-13-methyl-17-oxo-7,8,9,11,12,13,14,15,16,17-decahydro-6H-cyclopenta[a]phenanthren-15-yl)-N-(5-methylthiazol-2-yl)propanamide], the “In vitro metabolic stability, % remaining after 60 min” value [3] is reported as 74%.

With `Cc1cnc(NC(=O)CC[C@@H]2CC(=O)[C@@]3(C)CCC4c5cc6ncoc6cc5CCC4C23)s1` (stereo partly drawn) [Compound 47, 3-((3R,12aS)-12a-methyl-1-oxo-2,3,3a,3b,4,5,10b,11,12,12a-decahydro-1H-cyclopenta[7,8]phenanthro[3,2-d]oxazol-3-yl)-N-(5-methylthiazol-2-yl)propanamide] the inhibition at 1 µM [1] was 2%, the inhibition at 1 µM [2] was 87% and the “In vitro metabolic stability, % remaining after 60 min” value [3] was 48%.

With `Cc1cnc(NC(=O)CC[C@@H]2CC(=O)[C@@]3(C)CCC4c5cccc([N+](=O)[O-])c5CCC4C23)s1` (stereo partly drawn) [Compound 85, 3-((13S,15R)-13-methyl-4-nitro-17-oxo-7,8,9,11,12,13,14,15,16,17-decahydro-6H-cyclopenta[a]phenanthren-15-yl)-N-(5-methylthiazol-2-yl)propanamide] the inhibition at 1 µM [1] was 2% and the inhibition at 1 µM [2] was 93%.

In the case of `Cc1cnc(NC(=O)CC[C@@H]2CC(=O)[C@@]3(C)CCC4c5cc(F)ccc5CCC4C23)s1` (stereo partly drawn) [Compound 86, 3-((13S,15R)-2-fluoro-13-methyl-17-oxo-7,8,9,11,12,13,14,15,16,17-decahydro-6H-cyclopenta[a]phenanthren-15-yl)-N-(5-methylthiazol-2-yl)propanamide], the inhibition at 1 µM [1] is reported as 0% and the inhibition at 1 µM [2] is reported as 92%.

With `Cc1cnc(NC(=O)CC[C@@H]2CC(=O)[C@@]3(C)CCC4c5cc(N)ccc5CCC4C23)s1` (stereo partly drawn) [Compound 87, 3-((13S,15R)-2-amino-13-methyl-17-oxo-7,8,9,11,12,13,14,15,16,17-decahydro-6H-cyclopenta[a]phenanthren-15-yl)-N-(5-methylthiazol-2-yl)propanamide] the inhibition at 1 µM [1] was 2% and the inhibition at 1 µM [2] was 87%.

For `Cc1cnc(NC(=O)CC[C@@H]2CC(=O)[C@@]3(C)CCC4c5cc(O)ccc5CCC4C23)s1` (stereo partly drawn) [Compound 88, 3-((13S,15R)-2-hydroxy-13-methyl-17-oxo-7,8,9,11,12,13,14,15,16,17-decahydro-6H-cyclopenta[a]phenanthren-15-yl)-N-(5-methylthiazol-2-yl)propanamide], the inhibition at 1 µM [1] was 1% and the inhibition at 1 µM [2] was 93%.

With `Cc1cnc(NC(=O)CC[C@@H]2CC(=O)[C@@]3(C)CCC4c5cccc(N)c5CCC4C23)s1` (stereo partly drawn) [Compound 89, 3-((13S,15R)-4-amino-13-methyl-17-oxo-7,8,9,11,12,13,14,15,16,17-decahydro-6H-cyclopenta[a]phenanthren-15-yl)-N-(5-methylthiazol-2-yl)propanamide] the inhibition at 1 µM [1] was 0% and the inhibition at 1 µM [2] was 71%.

With `Cc1cnc(NC(=O)CC[C@@H]2CC(=O)[C@@]3(C)CCC4c5cccc(O)c5CCC4C23)s1` (stereo partly drawn) [Compound 90, 3-((13S,15R)-4-hydroxy-13-methyl-17-oxo-7,8,9,11,12,13,14,15,16,17-decahydro-6H-cyclopenta[a]phenanthren-15-yl)-N-(5-methylthiazol-2-yl)propanamide] the inhibition at 1 µM [1] was 0% and the inhibition at 1 µM [2] was 94%.

In the case of `Cc1cnc(NC(=O)CC[C@@H]2CC(=O)[C@@]3(C)CCC4c5cc(C#N)c(O)cc5CCC4C23)s1` (stereo partly drawn) [Compound 91, 3-((13S,15R)-2-cyano-3-hydroxy-13-methyl-17-oxo-7,8,9,11,12,13,14,15,16,17-decahydro-6H-cyclopenta[a]phenanthren-15-yl)-N-(5-methylthiazol-2-yl)propanamide], the inhibition at 1 µM [1] is reported as 1% and the inhibition at 1 µM [2] is reported as 97%.

In the case of `Cc1cnc(NC(=O)CC[C@@H]2CC(=O)[C@@]3(C)CCC4c5ccc(O)c(C#N)c5CCC4C23)s1` (stereo partly drawn) [Compound 92, 3-((13S,15R)-4-cyano-3-hydroxy-13-methyl-17-oxo-7,8,9,11,12,13,14,15,16,17-decahydro-6H-cyclopenta[a]phenanthren-15-yl)-N-(5-methylthiazol-2-yl)propanamide], the inhibition at 1 µM [1] is reported as 0% and the inhibition at 1 µM [2] is reported as 97%.

`COc1ccc2c(c1)CCC1C2CC[C@]2(C)C(=O)C(O)[C@@H](CCC(=O)Nc3ncc(C)s3)C12` (stereo partly drawn) [Compound 93, 3-((13S,15S)-16-hydroxy-3-methoxy-13-methyl-17-oxo-7,8,9,11,12,13,14,15,16,17-decahydro-6H-cyclopenta[a]phenanthren-15-yl)-N-(5-methylthiazol-2-yl)propanamide] showed an inhibition at 1 µM [1] of 3% and an inhibition at 1 µM [2] of 54%.

Work on `Cc1cnc(NC(=O)CC[C@@H]2CC(=O)[C@@]3(C)CCC4c5c([N+](=O)[O-])ccc(O)c5CCC4C23)s1` (stereo partly drawn) [Compound 94, 3-((13S,15R)-4-hydroxy-13-methyl-1-nitro-17-oxo-7,8,9,11,12,13,14,15,16,17-decahydro-6H-cyclopenta[a]phenanthren-15-yl)-N-(5-methylthiazol-2-yl)propanamide] yielded an inhibition at 1 µM [1] of 4% and an inhibition at 1 µM [2] of 95%.

With `Cc1cnc(NC(=O)CC[C@@H]2/C(=C/O)C(=O)[C@@]3(C)CCC4c5ccc(O)cc5CCC4C23)s1` (stereo partly drawn) [Compound 95, 3-{(13S,15S)-3-Hydroxy-16-[1-hydroxy-methylidene]-13-methyl-17-oxo-7,8,9,11,12,13,14,15,16,17-decahydro-6H-cyclopenta[a]phenanthren-15-yl}-N-(5-methylthiazol-2-yl)propanamide] the inhibition at 1 µM [1] was 3% and the inhibition at 1 µM [2] was 97%.

For `COc1ccc2c(c1)CCC1C2CC[C@]2(C)C(=O)/C(=C/O)[C@@H](CCC(=O)Nc3ncc(C)s3)C12` (stereo partly drawn) [Compound 97, 3-{(13S,15S)-16-[1-Hydroxy-methylidene]-3-methoxy-13-methyl-17-oxo-7,8,9,11,12,13,14,15,16,17-decahydro-6H-cyclopenta[a]phenanthren-15-yl}-N-(5-methylthiazol-2-yl)propanamide], the inhibition at 1 µM [1] was 11% and the inhibition at 1 µM [2] was 92%.

Work on `Cc1cnc(NC(=O)CC[C@@H]2CC(=O)[C@@]3(C)CCC4c5cccc(C(C)(C)C)c5CCC4C23)s1` (stereo partly drawn) [Compound 105, 3-((13S,15R)-4-(tert-butyl)-13-methyl-17-oxo-7,8,9,11,12,13,14,15,16,17-decahydro-6H-cyclopenta[a]phenanthren-15-yl)-N-(5-methylthiazol-2-yl)propanamide] yielded an inhibition at 1 µM [1] of 16% and an inhibition at 1 µM [2] of 90%.

Molecule `COc1ccc2c(c1)CCC1C2CC[C@]2(C)C(=O)C[C@@H](CCC(=O)Nc3ncc(C)s3)C12` (stereo partly drawn) [Compound X, 3-((13S,15R)-3-Methoxy-13-methyl-17-oxo-7,8,9,11,12,13,14,15,16,17-decahydro-6H-cyclopenta[a]phenanthren-15-yl)-N-(5-methylthiazol-2-yl)propanamide, reference compound] has an inhibition at 1 µM [1] of 3% and an inhibition at 1 µM [2] of 96%.

From patent publication US10377791B2, “Therapeutically active estratrienthiazole derivatives as inhibitors of 17 B-hydroxysteroid dehydrogenase, type 1” (FORENDO PHARMA LTD, priority 2013, dated 2019)
